Measurements from patent US11014911B2, “CDK2 inhibitors” (Pfizer Inc., priority 2019, dated 2021).

Columns and labels:
[1] = target: CDK2/Cyclin E1 full length (Homo sapiens (Human), UniProt P24941); test: CDK2/Cyclin E1 full length mobility shift assay; type: biochemical
GSK3β (H350L) = GSK3β (H350L) (Homo sapiens (Human), UniProt P49841); details: read-out: GSK3β Ki
GSK3β (H350L), sequence (P49841 whole entry, stated change not applied): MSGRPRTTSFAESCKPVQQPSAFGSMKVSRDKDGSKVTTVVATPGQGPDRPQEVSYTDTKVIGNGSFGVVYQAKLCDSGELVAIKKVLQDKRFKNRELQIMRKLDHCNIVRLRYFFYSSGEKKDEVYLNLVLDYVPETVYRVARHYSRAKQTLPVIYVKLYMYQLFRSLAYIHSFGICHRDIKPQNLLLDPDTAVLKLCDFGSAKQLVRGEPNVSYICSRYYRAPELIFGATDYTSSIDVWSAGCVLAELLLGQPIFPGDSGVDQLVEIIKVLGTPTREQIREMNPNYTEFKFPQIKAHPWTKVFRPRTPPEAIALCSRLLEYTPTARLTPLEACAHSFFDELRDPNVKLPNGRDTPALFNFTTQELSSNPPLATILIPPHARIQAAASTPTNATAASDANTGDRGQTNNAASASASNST
Experimental: The assay was initiated with the addition of ATP, following 15 minutes pre-incubation of enzyme and inhibitor at room temperature in the reaction mixture. The reaction was stopped after 30 minutes at room temperature by the addition of 50 μL of 80 mM EDTA.

SMILES	Ki [1] [nM]	Ki (GSK3β (H350L)) [nM]
C[C@@H]1COCCN1C(=O)O[C@@H]1CC[C@H](c2cc(NC(=O)Cc3cc(F)cc(F)c3)n[nH]2)C1 [Example 645, (1R,3S)-3-(3-{[(3,5-difluorophenyl)acetyl]amino}-1H-pyrazol-5-yl)cyclopentyl (3R)-3-methylmorpholine-4-carboxylate]	0.37	7.23
CC1(C)CCCN1C(=O)O[C@@H]1CC[C@H](c2cc(NC(=O)Cc3cnc4ncnn4c3)n[nH]2)C1 [Example 137]	0.09	6.07
Cc1ccc(CC(=O)Nc2cc([C@@H]3CC[C@H](OC(=O)N[C@H]4CC[C@@H](O)CC4)C3)[nH]n2)cn1 [Example 545, (1S,3R)-3-(3-{[(6-methylpyridin-3-yl)acetyl]amino}-1H-pyrazol-5-yl)cyclopentyl (cis-4-hydroxycyclohexyl)carbamate]	0.39	2.2
COCc1cc(C(=O)Nc2cc([C@H]3CC[C@@H](OC(=O)NCCC(F)(F)F)C3)[nH]n2)n(C)n1 [Example 103]	1.37	> 47.6
CCCNC(=O)O[C@@H]1CC[C@H](c2cc(NC(=O)Cc3ccno3)n[nH]2)C1 [Example 169, (1R,3S)-3-{3-[(1,2-oxazol-5-ylacetyl)amino]-1H-pyrazol-5-yl}cyclopentyl propylcarbamate]	1.63	29.6
CC[C@H](C)NC(=O)O[C@@H]1CC[C@H](c2cc(NC(=O)Cc3ccnc(OC)c3)n[nH]2)C1 [Example 37]	0.19	23.4
Cc1cc(CC(=O)Nc2cc([C@H]3CC[C@@H](OC(=O)N4CCOCC4(C)C)C3)[nH]n2)on1 [Example 649, (1R,3S)-3-(3-{[(3-methyl-1,2-oxazol-5-yl)acetyl]amino}-1H-pyrazol-5-yl)cyclopentyl 3,3-dimethylmorpholine-4-carboxylate]	0.31	9.2
CC[C@H](C)CNC(=O)O[C@@H]1CC[C@H](c2cc(NC(=O)Cc3cnc(C)s3)n[nH]2)C1 [Example 417, (1R,3S)-3-(3-{[(2-methyl-1,3-thiazol-5-yl)acetyl]amino}-1H-pyrazol-5-yl)cyclopentyl [(2S)-2-methylbutyl]carbamate]	0.81	12.6
CC[C@H](C)NC(=O)O[C@@H]1CC[C@H](c2cc(NC(=O)Cc3cccc(C)c3S(C)(=O)=O)n[nH]2)C1 [Example 372, (1R,3S)-3-[3-({[3-methyl-2-(methylsulfonyl)phenyl]acetyl}amino)-1H-pyrazol-5-yl]cyclopentyl (2S)-butan-2-ylcarbamate]	0.85	115
COc1ncc(CC(=O)Nc2cc([C@H]3CC[C@@H](OC(=O)N4CCOC[C@H]4C)C3)[nH]n2)s1 [Example 647, (1R,3S)-3-(3-{[(2-methoxy-1,3-thiazol-5-yl)acetyl]amino}-1H-pyrazol-5-yl)cyclopentyl (3R)-3-methylmorpholine-4-carboxylate]	1.08	3.39
CC[C@H](C)NC(=O)O[C@@H]1CC[C@H](c2cc(NC(=O)c3ccnc4ncsc34)n[nH]2)C1 [Example 43]	0.04	45.4
CC[C@H](C)NC(=O)O[C@@H]1CC[C@H](c2cc(NC(=O)Cc3ccnc(C)c3)n[nH]2)C1 [Example 335, (1R,3S)-3-(3-{[(2-methylpyridin-4-yl)acetyl]amino}-1H-pyrazol-5-yl)cyclopentyl (2S)-butan-2-ylcarbamate]	0.41	23.9
CC(C)NC(=O)O[C@@H]1CC[C@H](c2cc(NC(=O)Cc3cnn(C)c3)n[nH]2)C1 [Example 60]	0.33	92.5
CCCNC(=O)O[C@H]1CC[C@@H](c2cc(NC(=O)Cc3ccc(OCCN)cc3)n[nH]2)C1 [Example 198, (1S,3R)-3-[3-({[4-(2-aminoethoxy)phenyl]acetyl}amino)-1H-pyrazol-5-yl]cyclopentyl propylcarbamate]	0.28	52.1
CC[C@H](C)NC(=O)O[C@@H]1CC[C@H](c2cc(NC(=O)Cc3cncn3C)n[nH]2)C1 [Example 329, (1R,3S)-3-(3-{[(1-methyl-1H-imidazol-5-yl)acetyl]amino}-1H-pyrazol-5-yl)cyclopentyl (2S)-butan-2-ylcarbamate]	1.02	107
CCNC(=O)O[C@@H]1CC[C@H](c2cc(NC(=O)Cc3ccno3)n[nH]2)C1 [Example 226, (1R,3S)-3-{3-[(1,2-oxazol-5-ylacetyl)amino]-1H-pyrazol-5-yl}cyclopentyl ethylcarbamate]	3.72	132
CCCCNC(=O)O[C@H]1CC[C@@H](c2cc(NC(=O)Cc3ccno3)n[nH]2)C1 [Example 258, (1S,3R)-3-{3-[(1,2-oxazol-5-ylacetyl)amino]-1H-pyrazol-5-yl}cyclopentyl butylcarbamate]	0.74	10.7
Cn1cc(CC(=O)Nc2cc([C@H]3CC[C@@H](OC(=O)NC(C)(C)C)C3)[nH]n2)cn1 [Example 112]	0.15	40.2

SMILES	Ki [1] [nM]	Ki (GSK3β (H350L)) [nM]
CCCNC(=O)O[C@@H]1CC[C@H](c2cc(NC(=O)Cc3ccc(OC)cn3)n[nH]2)C1 (stereo in doubt) [Example 187, (1R,3S)-3-(3-{[(5-methoxypyridin-2-yl)acetyl]amino}-1H-pyrazol-5-yl)cyclopentyl propylcarbamate]	4.59	23.9
CC[C@H](C)NC(=O)O[C@@H]1CC[C@H](c2cc(NC(=O)Cc3sc(C)nc3C)n[nH]2)C1 [Example 352, (1R,3S)-3-(3-{[(2,4-dimethyl-1,3-thiazol-5-yl)acetyl]amino}-1H-pyrazol-5-yl)cyclopentyl (2S)-butan-2-ylcarbamate]	0.82	58.4
CCc1nn2cc(CC(=O)Nc3cc([C@H]4CC[C@@H](OC(=O)N[C@@H](C)CC)C4)[nH]n3)nc2s1 [Example 367, (1R,3S)-3-(3-{[(2-ethylimidazo[2,1-b][1,3,4]thiadiazol-6-yl)acetyl]amino}-1H-pyrazol-5-yl)cyclopentyl (2S)-butan-2-ylcarbamate]	0.27	23.5
CCCNC(=O)O[C@H]1CC[C@@H](c2cc(NC(=O)Cc3cnc(C)o3)n[nH]2)C1 [Example 175, (1S,3R)-3-(3-{[(2-methyl-1,3-oxazol-5-yl)acetyl]amino}-1H-pyrazol-5-yl)cyclopentyl propylcarbamate]	0.82	39.7
COc1cc(CC(=O)Nc2cc([C@H]3CC[C@@H](OC(=O)NC(C)(C)C)C3)[nH]n2)c(OC)cn1 [Example 315, (1R,3S)-3-(3-{[(2,5-dimethoxypyridin-4-yl)acetyl]amino}-1H-pyrazol-5-yl)cyclopentyl tert-butylcarbamate]	0.65	133
CC1(NC(=O)O[C@@H]2CC[C@H](c3cc(NC(=O)Cc4ccno4)n[nH]3)C2)CC1 [Example 128]	0.15	55.4
COc1cc(CC(=O)Nc2cc([C@H]3CC[C@@H](OC(=O)N4C[C@@H](OC)[C@@H]4C)C3)[nH]n2)ccn1 [Example 619, (1R,3S)-3-(3-{[(2-methoxypyridin-4-yl)acetyl]amino}-1H-pyrazol-5-yl)cyclopentyl (2S,3R)-3-methoxy-2-methylazetidine-1-carboxylate]	0.42	5.75
CCN(C)C(=O)O[C@@H]1CC[C@H](c2cc(NC(=O)Cc3cc(F)cc(F)c3)n[nH]2)C1 [Example 245, (1R,3S)-3-(3-{[(3,5-difluorophenyl)acetyl]amino}-1H-pyrazol-5-yl)cyclopentyl ethyl(methyl)carbamate]	0.53	19.2
COc1ccc(CC(=O)Nc2cc([C@H]3CC[C@@H](OC(=O)NCC(F)F)C3)[nH]n2)cc1 [Example 250, (1R,3S)-3-(3-{[(4-methoxyphenyl)acetyl]amino}-1H-pyrazol-5-yl)cyclopentyl (2,2-difluoroethyl)carbamate]	1.62	27.4
CC(C)(C)NC(=O)O[C@@H]1CC[C@H](c2cc(NC(=O)Cc3ccno3)n[nH]2)C1 [Example 108]	0.15	38.8
CCCNC(=O)O[C@H]1CC[C@@H](c2cc(NC(=O)Cc3ccc4[nH]c(C)nc4c3)n[nH]2)C1 [Example 23]	0.11	2.45
COc1ccc(CC(=O)Nc2cc([C@@H]3CC[C@H](OC(=O)N4C[C@@H](O)[C@@H]4C)C3)[nH]n2)cn1 [Example 614, (1S,3R)-3-(3-{[(6-methoxypyridin-3-yl)acetyl]amino}-1H-pyrazol-5-yl)cyclopentyl (2S,3R)-3-hydroxy-2-methylazetidine-1-carboxylate]	1.66	6.58
CCCNC(=O)O[C@H]1CC[C@@H](c2cc(NC(=O)Cc3ccccc3OCCN)n[nH]2)C1 [Example 197, (1S,3R)-3-[3-({[2-(2-aminoethoxy)phenyl]acetyl}amino)-1H-pyrazol-5-yl]cyclopentyl propylcarbamate]	0.49	> 191
CC[C@H](C)NC(=O)O[C@@H]1CC[C@H](c2cc(NC(=O)c3ccnn3CCN(C)C)[nH]n2)C1 [Example 356, (1R,3S)-3-{5-[({1-[2-(dimethylamino)ethyl]-1H-pyrazol-5-yl}carbonyl)amino]-1H-pyrazol-3-yl}cyclopentyl (2S)-butan-2-ylcarbamate]	0.67	148
O=C(Cc1ccno1)Nc1cc([C@H]2CC[C@@H](OC(=O)NC3CCCC3)C2)[nH]n1 [Example 460, (1R,3S)-3-{3-[(1,2-oxazol-5-ylacetyl)amino]-1H-pyrazol-5-yl}cyclopentyl cyclopentylcarbamate]	1.62	39.9
CCN(C)C(=O)O[C@@H]1CC[C@H](c2cc(NC(=O)Cc3ccnc(OC)c3)n[nH]2)C1 [Example 242, (1R,3S)-3-(3-{[(2-methoxypyridin-4-yl)acetyl]amino}-1H-pyrazol-5-yl)cyclopentyl ethyl(methyl)carbamate]	0.81	9.7
COc1ccc(CC(=O)Nc2cc([C@H]3CC[C@@H](OC(=O)N[C@H]4CC[C@@](C)(O)CC4)C3)[nH]n2)cc1 [Example 566, (1R,3S)-3-(3-{[(4-methoxyphenyl)acetyl]amino}-1H-pyrazol-5-yl)cyclopentyl (cis-4-hydroxy-4-methylcyclohexyl)carbamate]	0.79	37.6
